Measurements as given in patent US12551468B2, “Pharmaceutical composition for oral administration, for treatment of liver cancer” (ETNOVA Therapeutics Corp., priority 2019, dated 2026).

Key:
[1] = test system: human liver cancer cell line HepG2; test: Anticancer effect test in liver cancer animal model using human liver cancer cell line (Example 2); assay type: in vivo, nude mouse; conditions: for relative size of tumor isolated 21 days after administration: compound 100 mg/kg P.O., Cisplatin 5 mg/kg IV, twice a week for 3 weeks, FIG. 2
Protocol: (§1) The human liver cancer cell line HepG2 was grown in Eagle's Minimum Essential Medium (EMEM) medium supplemented with 10% Fetal bovine serum (FBS) and 1% Antibiotic-Antimycotic. For liver cancer animal model production, stabilized cells were suspended in a 1:1 mixture (100 μL) of EMEM serum free media: Matrigel at a density of 5×10^6 cells/animal and then the suspension was transplanted subcutaneously to a flank of a nude mouse (5 weeks old, male). We have waited for the tumor formation for 3 weeks. When the tumor volume reached 200 mm^3, the body weight and the tumor size were measured and then the mice were randomly grouped. The mice were divided into 3 groups. Saline alone was administered intravenously to each group (Saline administered group (n=6, IV)). Cisplatin adjusted to pH 4 using NaCl aqueous solution, HCl aqueous solution, or NaOH aqueous solution was administered intravenously thereto (Cisplatin administered group (n=6, IV)). The compound according to the present disclosure (compound of Chemical Formula 1-1) dissolved in saline was forcibly administered orally thereto (administered group according to the present disclosure (n=6, P.O.)). The administration intervals and frequencies of administration to the groups were equal to each other. The administration was performed once a day and twice a week for 3 weeks. The dosage of Cisplatin (intravenous administration) was 5 mg/kg. The composition was orally administered at 100 mg/kg to the administered group according to the present disclosure.
The mice were anesthetized immediately prior to the administration, and then the body weight thereof was measured to observe the change in the body weight. The change in the tumor size over time was observed based on a following equation.
Average tumor volume calculation equation: V (mean tumor volume)=(A×B×B)/2
(In the above equation, A denotes a length of a long side and B denotes a length of a short side).
Further, on 21 days after the administration, a start time of tumor necrosis in the saline group was designated as an end point of the experiment. All nude mice participating in the experiment were sacrificed. Only the tumor was isolated from the flank thereof, and the relative size of the tumor was photographed. In FIG. 2, grayish-white dots mean that all tumors have disappeared and an individual has a tumor which may not be distinguished.

[2] = Comparative study of blood and histological toxicity (serum GOT/GPT activity, Sirius red staining of liver and kidney); assay type: in vivo; conditions: oral administration, end of Example 2 experiment; FIG. 3 and FIG. 4
Protocol: Toxicity was analyzed based on activity assay of GOT and GPT. A specific experimental method is as follows: GOT and GPT activity in serum was measured using a reagent kit (Asan Pharmaceutical) prepared according to a method of Reitman-Frankel. At an end of the experiment, blood was collected from an abdominal vena cava of the mice to which the compound was administered, and serum was separated therefrom. When a substrate solution was added to the serum which in turn was heated for a certain period of time, oxalacetate and glutamic acid were generated from the substrate solution for GOT measurement (aspartate, a-ketoglutarate mixture) due to the action of serum GOT, while under GPT action, pyruvate and glutamic acid were generated from the substrate solution for GPT measurement (Alanine, a-ketoglutarate mixture). Then, […] was added thereto such that 2,4-dinitrophenylhydrazone of oxaloacetate or pyruvate was produced, and NaOH was added thereto to develop color, and then absorbance was measured (505 nm). The activity of GOT and GPT in serum was calculated from a standard calibration curve as prepared separately.
At the end of the experiment, the blood of nude mice participating in the experiment was perfused and livers and kidneys were obtained. The tissues were fixed in 4% paraformaldehyde. […]

[3] = test system: human liver cancer cell line HepG2; test: Comparison of survival rate in the liver cancer animal model (Example 4); assay type: in vivo, nude mouse; conditions: animal model test of Example 2; FIG. 5
Protocol: as §1, with “The composition was orally administered at 100 mg/kg to the administered group according to the present disclosure.” left out

Human liver cancer cells = test: Comparative test of anticancer effect according to administration route change (Example 5); assay type: in vivo; conditions: 100 mg/kg P.O. vs 5 mg/kg I.V., twice a week for 4 weeks
Protocol: Human liver cancer cells were suspended in a 1:1 mixture (100 μL) of EMEM serum free media: Matrigel at a density of 2×10^6 cells/animal and the suspension was transplanted subcutaneously into the flank of nude mice (5 weeks old, male). We have waited for the tumor formation for 4 weeks. When the tumor volume reached 100 mm^3, the body weight and the tumor size were measured and then the mice were randomly grouped. The mice were divided into 4 groups. Saline alone was administered intravenously to each group (Saline administered group (n=6, I.V.)). Cisplatin adjusted to pH 4 using NaCl aqueous solution, HCl aqueous solution, or NaOH aqueous solution was administered intravenously thereto (Cisplatin administered group (n=5, I.V.)). […] The mice were anesthetized immediately prior to administration, and the body weight was measured to observe the change in the body weight. The changes in the body weight and the tumor size for 4 weeks were measured in the same manner as in Example 1 above, and the results are shown in FIG. 6. In the same manner as in Example 2, the tumor was separated and the relative size of the tumor was measured, and the photographed tissue is shown in FIG. 7.

[4] = 100 mg/kg P.O., once a day twice a week for 3 weeks, FIG. 1

SMILES	change in body weight for 3 weeks [1, 4]	change in tumor size for 3 weeks [1, 4]	relative size of tumor isolated 21 days after administration [1]	toxicity in the liver and kidneys (serum GOT and GPT activity, tissue histology) [2]	survival over time after drug administration [3]	toxicity based on the change in body weight, oral compared to intravenous administration (Human liver cancer cells; FIG. 6)	anticancer effect (tumor size, isolated tumor at 28 days, survival), oral compared to intravenous administration (Human liver cancer cells; FIGS. 6, 7, 8)
NCC(N)C(=O)Nc1ccc(-c2nc3ccccc3s2)cc1 (centres unmarked) [Chemical Formula 1-1]	no decrease in the body weight	the tumor disappeared or the size thereof was significantly reduced	tumors significantly decrease or completely disappear	significantly lowered	the survival was higher	the toxicity based on the change in body weight may be lowered	the anticancer effect may be significantly better
N.N.[Cl][Pt][Cl] [Cisplatin, cisplatin, reference compound]	–	–	tumor cells remain	–	–	–	–
